Experimental data: ChEMBL document CHEMBL1201862, “PubChem BioAssay data set” (2004)
The source made the active and inactive calls.

Columns and labels:
[1] = luciferase reporter signal suppression in cells – H4 neuroglioma cells, luminescence, dose response (AID 1990); type: functional, cell-based
[2] = luciferase reporter signal reduction – luminescence, H4-C neuroglioblastoma cells, dose response (AID 2458); type: functional, cell-based;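 further: H4 neuroglioblastoma cells stably carrying a luciferase reporter gene fusion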
cells = type: functional, cell-based
[3] = Luminescence Cell-Based Dose Response HTS to Identify Inhibitors of 5'UTR Stem-Loop Driven Prion Protein mRNA Translation in H4 Neuroglioblastoma Cells. [Related pubchem assays: 1827 (Project Summary), 1813 (Primary HTS)]; type: functional
[4] = alpha-synuclein stem-loop luciferase translation blockers – H4 neuroglioma cells, luminescence, confirmation (AID 1988); type: functional, cell-based
BJ [5] = experiment: cells; type: functional, cell-based; conditions: Homo sapiens
[6] = Luminescence-based dose response cell-based high throughput screening assay for cytotoxic compounds using the IEC-6 intestinal epithelial cell line. [Related pubchem assays: 1858 (Summary AID.), 1825 (Counterscreen.), 1907 (Confirmation screen.)]; type: functional
[7] = alpha-synuclein stem-loop translation blockers – luminescence, H4 neuroglioblastoma cells, dose confirmation, confirmation (AID 2454); type: functional, cell-based;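 further: H4 neuroglioblastoma cells carrying an alpha-synuclein 5'UTR luciferase reporter; potency for inhibition of the luciferase signal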
[8] = HEK-293T viability loss after treatment – luminescence, T-cell screen hits, cytotoxicity control for TCR NF-kB inhibitor project, dose response (AID 489026); type: functional, cell-based;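 further: cells exposed to compound about 14 hours before the viability readout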
Interleukin-8 [9] = molecular target: T1, Interleukin-8 (Homo sapiens, UniProt P10145); experiment: SAR analysis of Tumor necrosis factor alpha (TNF-alpha) induced IL-8 secretion in MCF-7/NOD1 cells - Set 2. [Related pubchem assays (depositor defined):AID1575, AID2250, AID2260]; type: functional, cell-based
T1 sequence (P10145 whole entry): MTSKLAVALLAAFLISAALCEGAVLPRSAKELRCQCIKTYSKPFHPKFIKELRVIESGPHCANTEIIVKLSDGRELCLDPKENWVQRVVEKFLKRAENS

Interleukin-8 [10] = molecular target: T1, Interleukin-8; experiment: SAR analysis of GM-Tri-DAP induced IL-8 secretion in MCF-7/NOD1 cells - Set 2. [Related pubchem assays (depositor defined):AID1575, AID1578, AID2333]; type: functional, cell-based
Tumor necrosis factor = Tumor necrosis factor (Homo sapiens, UniProt P01375); experiment: analog potency on TNFa NF-kB signaling – cell-based, revised, SAR follow-up (AID 2337); type: functional
Chain of Tumor necrosis factor (P01375 whole entry, the tested form may be a part): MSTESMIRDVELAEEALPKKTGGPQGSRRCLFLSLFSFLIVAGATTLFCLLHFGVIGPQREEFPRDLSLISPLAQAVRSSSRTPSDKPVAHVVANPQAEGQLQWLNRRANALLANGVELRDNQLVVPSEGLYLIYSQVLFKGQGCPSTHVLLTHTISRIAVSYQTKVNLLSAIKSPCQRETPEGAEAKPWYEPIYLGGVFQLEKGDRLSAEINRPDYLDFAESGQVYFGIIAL

[11] = molecular target: T2, Nucleotide-binding oligomerization domain-containing protein 1 (Homo sapiens, UniProt Q9Y239); experiment: blockers of NOD1 pathway activity – revised, SAR follow-up (AID 2333); type: functional
T2 sequence (Q9Y239 whole entry): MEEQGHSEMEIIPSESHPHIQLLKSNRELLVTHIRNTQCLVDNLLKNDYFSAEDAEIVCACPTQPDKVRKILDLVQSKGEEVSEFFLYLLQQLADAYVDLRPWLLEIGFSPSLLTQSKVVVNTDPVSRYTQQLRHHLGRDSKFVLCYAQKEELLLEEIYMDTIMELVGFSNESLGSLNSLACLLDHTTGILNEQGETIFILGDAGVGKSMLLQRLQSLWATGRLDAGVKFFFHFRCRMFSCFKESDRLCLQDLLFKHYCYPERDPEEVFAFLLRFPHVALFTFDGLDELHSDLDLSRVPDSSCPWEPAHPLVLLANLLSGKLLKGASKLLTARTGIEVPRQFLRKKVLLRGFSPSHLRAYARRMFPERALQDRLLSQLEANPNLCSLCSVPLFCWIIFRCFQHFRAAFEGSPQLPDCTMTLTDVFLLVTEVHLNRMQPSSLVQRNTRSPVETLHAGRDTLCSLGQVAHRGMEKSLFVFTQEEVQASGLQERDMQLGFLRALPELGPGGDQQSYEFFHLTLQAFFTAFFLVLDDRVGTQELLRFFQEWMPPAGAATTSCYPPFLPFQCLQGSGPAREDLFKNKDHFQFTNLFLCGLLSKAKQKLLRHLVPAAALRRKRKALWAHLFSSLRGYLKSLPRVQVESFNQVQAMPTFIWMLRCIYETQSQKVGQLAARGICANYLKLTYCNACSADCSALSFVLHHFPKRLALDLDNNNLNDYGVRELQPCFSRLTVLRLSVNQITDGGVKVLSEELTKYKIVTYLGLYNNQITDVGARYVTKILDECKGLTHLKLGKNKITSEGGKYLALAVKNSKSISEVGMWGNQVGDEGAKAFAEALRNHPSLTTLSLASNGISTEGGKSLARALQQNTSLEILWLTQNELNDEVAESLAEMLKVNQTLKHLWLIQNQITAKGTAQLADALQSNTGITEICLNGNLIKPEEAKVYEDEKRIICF

[12] = molecular target: Nucleotide-binding oligomerization domain-containing protein 2 (Homo sapiens, UniProt Q9HC29); experiment: PubChem AID 2334; type: functional
HEK293 = experiment: cells; conditions: Homo sapiens;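 further: cells exposed to compound for 14 hours overnight before viability readout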
[13] = molecular target: Glucose-6-phosphate 1-dehydrogenase (Homo sapiens, UniProt P11413); experiment: inhibition of Homo sapiens G6PD, dose series – biochemical, fluorescence, selectivity assay for P. falciparum G6PD inhibitor project, dose response (AID 504792); type: functional
Chain of Glucose-6-phosphate 1-dehydrogenase (P11413 whole entry, the tested form may be a part): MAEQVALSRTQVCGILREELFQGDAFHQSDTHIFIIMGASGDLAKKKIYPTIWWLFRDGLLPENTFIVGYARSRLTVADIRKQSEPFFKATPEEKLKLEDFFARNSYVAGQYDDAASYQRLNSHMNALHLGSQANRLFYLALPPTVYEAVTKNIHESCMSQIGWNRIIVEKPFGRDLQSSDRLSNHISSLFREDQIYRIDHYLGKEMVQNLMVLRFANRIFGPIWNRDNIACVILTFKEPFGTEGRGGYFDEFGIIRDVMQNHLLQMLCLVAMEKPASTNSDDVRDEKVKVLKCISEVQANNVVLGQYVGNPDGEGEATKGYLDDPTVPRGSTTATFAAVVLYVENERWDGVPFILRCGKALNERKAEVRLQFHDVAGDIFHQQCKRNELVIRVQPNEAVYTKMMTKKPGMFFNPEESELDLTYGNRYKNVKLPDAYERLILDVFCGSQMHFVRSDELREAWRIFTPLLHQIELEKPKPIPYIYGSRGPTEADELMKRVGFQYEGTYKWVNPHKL

[14] = molecular target: NACHT, LRR and PYD domains-containing protein 3 (Homo sapiens, UniProt Q96P20); experiment: NALP3 inhibitors in yeast, dose response, luminescent (AID 488799); type: functional
Chain of NACHT, LRR and PYD domains-containing protein 3 (Q96P20 whole entry, the tested form may be a part): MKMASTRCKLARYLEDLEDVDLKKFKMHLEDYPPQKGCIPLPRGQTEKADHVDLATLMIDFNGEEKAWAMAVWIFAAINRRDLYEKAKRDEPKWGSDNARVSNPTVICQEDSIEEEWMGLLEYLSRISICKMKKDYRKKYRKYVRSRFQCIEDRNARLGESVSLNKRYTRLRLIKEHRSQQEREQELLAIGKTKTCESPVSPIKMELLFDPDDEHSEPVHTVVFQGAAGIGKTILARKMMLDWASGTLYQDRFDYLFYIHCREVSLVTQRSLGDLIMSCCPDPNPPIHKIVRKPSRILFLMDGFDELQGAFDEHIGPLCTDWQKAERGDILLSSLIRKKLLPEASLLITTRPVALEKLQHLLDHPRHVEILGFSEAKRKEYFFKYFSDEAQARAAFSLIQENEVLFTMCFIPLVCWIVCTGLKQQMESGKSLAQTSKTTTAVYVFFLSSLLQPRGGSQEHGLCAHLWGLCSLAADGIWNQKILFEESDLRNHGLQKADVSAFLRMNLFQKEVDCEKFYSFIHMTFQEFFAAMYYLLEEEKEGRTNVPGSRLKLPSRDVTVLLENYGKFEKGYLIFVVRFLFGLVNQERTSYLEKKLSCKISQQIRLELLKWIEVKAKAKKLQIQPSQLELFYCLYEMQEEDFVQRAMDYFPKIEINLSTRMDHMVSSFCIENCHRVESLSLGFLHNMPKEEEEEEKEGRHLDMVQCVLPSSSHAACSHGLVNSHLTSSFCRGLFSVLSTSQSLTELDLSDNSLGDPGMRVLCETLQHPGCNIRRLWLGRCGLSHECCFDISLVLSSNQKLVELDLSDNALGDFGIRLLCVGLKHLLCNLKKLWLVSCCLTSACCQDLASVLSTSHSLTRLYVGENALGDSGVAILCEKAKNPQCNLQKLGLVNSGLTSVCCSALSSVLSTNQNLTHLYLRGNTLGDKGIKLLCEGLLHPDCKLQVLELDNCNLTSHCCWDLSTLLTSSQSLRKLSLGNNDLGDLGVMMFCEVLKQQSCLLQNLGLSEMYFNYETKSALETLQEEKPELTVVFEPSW

[15] = molecular target: T3, Eukaryotic translation initiation factor 2-alpha kinase 3 (Homo sapiens, UniProt Q9NZJ5); experiment: Dose response cell-based high-throughput screening assay to measure PERK inhibition. [Related pubchem assays: 1416 ]; type: functional
T3 sequence (Q9NZJ5 whole entry): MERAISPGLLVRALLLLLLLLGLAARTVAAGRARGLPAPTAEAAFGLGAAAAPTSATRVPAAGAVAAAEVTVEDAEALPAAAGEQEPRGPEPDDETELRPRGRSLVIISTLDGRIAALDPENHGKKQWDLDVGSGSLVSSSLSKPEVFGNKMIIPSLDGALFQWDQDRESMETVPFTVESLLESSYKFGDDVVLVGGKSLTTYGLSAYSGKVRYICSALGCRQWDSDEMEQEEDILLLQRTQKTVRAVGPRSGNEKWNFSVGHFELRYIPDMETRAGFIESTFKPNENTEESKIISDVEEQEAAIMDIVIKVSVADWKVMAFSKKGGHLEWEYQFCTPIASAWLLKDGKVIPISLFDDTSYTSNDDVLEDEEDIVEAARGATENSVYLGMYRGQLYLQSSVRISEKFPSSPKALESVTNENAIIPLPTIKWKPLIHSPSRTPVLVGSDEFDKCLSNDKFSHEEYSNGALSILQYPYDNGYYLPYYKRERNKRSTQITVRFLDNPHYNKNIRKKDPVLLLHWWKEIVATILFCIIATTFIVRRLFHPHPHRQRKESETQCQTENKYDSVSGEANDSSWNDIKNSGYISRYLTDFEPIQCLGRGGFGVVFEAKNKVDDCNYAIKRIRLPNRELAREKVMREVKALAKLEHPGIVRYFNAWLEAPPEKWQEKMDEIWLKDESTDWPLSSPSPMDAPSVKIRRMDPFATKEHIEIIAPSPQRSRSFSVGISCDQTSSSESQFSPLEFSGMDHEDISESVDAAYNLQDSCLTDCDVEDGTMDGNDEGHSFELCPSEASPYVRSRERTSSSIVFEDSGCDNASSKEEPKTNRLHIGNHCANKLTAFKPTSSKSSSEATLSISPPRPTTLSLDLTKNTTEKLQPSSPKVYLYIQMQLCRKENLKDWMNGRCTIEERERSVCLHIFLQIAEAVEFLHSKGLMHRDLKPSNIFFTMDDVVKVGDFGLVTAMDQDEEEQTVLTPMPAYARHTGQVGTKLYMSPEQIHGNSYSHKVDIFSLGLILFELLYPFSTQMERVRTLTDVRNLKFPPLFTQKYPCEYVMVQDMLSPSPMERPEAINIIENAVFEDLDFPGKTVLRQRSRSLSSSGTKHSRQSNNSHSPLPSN

[16] = molecular target: T3, Eukaryotic translation initiation factor 2-alpha kinase 3; experiment: Counterscreen assay for PERK inhibitors: Dose response cell-based high throughput screening assay to measure inhibition of PERK at 6 hours. [Related pubchem assays: 1522, 1416 ]; type: functional
BJ [17] = experiment: growth inhibition of engineered Ras-driven BJ cells – cell-based, alamar blue fluorescence, cherrypicked samples, dose response (AID 2631); type: functional; conditions: Homo sapiens;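 further: confirmatory dose-response assay in RAS-dependent BJ fibroblasts engineered with TERT, LT and ST, with cytotoxicity read by fluorescence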
P388/ADR = experiment: cells; type: functional; conditions: Mus musculus
SN12K1 = experiment: cells; type: functional; conditions: Homo sapiens
P388 = experiment: cells; type: functional; conditions: Mus musculus
[18] = molecular target: Eukaryotic translation initiation factor 4H (Homo sapiens, UniProt Q15056); experiment: inhibitors of translation initiation factor eIF4H – SAR follow-up (AID 435011); type: functional
[19] = molecular target: Polyadenylate-binding protein 1 (Homo sapiens, UniProt P11940); experiment: PABP inhibition in translation initiation, SAR follow-up (AID 435018); type: functional
Chain of Polyadenylate-binding protein 1 (P11940 whole entry): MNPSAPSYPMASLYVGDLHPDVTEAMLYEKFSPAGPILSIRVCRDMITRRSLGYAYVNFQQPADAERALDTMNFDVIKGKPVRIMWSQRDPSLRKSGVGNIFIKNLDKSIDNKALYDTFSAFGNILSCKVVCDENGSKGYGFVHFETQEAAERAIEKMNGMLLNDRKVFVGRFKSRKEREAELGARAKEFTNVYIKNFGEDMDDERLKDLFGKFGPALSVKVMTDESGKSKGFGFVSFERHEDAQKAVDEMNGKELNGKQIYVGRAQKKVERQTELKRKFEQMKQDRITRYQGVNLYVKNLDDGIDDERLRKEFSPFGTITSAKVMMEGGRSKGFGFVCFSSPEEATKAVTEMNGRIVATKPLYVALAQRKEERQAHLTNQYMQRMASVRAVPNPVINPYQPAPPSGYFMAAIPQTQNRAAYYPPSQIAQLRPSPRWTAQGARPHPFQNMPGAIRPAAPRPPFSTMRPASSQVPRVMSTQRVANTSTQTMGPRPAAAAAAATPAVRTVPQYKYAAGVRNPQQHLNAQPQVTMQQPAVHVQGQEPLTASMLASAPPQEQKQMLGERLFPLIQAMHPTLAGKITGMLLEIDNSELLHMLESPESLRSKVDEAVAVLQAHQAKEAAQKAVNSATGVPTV

[20] = molecular target: Nuclear receptor subfamily 5 group A member 2 (Homo sapiens, UniProt O00482); type: functional, cell-based;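 further: HEK293T cells transfected with LRH-1 and a StAR promoter luciferase reporter; potency for inhibitors that lower LRH-1 driven reporter light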
Chain of Nuclear receptor subfamily 5 group A member 2 (O00482 whole entry): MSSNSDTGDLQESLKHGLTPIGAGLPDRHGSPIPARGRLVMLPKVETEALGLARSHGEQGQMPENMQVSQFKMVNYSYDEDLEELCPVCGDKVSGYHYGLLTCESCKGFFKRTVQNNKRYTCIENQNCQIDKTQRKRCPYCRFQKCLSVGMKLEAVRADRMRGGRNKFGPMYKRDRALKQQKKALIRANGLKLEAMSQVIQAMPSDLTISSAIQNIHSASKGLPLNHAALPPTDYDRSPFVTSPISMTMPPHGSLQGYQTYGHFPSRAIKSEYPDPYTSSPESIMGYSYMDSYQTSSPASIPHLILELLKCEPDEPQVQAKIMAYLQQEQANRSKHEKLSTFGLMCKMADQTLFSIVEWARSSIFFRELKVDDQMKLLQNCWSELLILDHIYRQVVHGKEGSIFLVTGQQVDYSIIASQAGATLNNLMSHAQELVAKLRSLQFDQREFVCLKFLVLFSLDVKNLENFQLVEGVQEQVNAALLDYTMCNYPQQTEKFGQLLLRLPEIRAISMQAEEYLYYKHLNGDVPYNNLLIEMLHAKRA

Steroidogenic factor 1 = Steroidogenic factor 1 (Homo sapiens, UniProt Q13285); experiment: Counterscreen for inverse agonists of the liver receptor homolog-1 (LRH-1; NR5A2): Luminescence-based cell-based high throughput dose response assay to identify inverse agonists of the Steroidogenic Factor 1 Nuclear Receptor (SF1; NR5A1).; type: functional
Chain of Steroidogenic factor 1 (Q13285 whole entry): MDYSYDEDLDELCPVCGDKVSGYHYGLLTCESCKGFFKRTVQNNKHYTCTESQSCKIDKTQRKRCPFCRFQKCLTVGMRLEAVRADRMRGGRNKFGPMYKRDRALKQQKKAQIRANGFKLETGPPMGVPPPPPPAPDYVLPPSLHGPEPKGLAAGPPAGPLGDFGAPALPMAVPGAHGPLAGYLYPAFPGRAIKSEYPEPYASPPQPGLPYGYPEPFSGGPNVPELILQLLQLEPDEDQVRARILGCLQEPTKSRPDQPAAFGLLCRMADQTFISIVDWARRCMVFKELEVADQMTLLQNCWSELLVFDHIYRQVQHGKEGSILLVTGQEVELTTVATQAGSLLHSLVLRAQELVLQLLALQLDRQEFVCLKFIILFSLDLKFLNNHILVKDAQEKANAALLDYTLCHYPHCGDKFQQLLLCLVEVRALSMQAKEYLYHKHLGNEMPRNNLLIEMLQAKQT

[21] = nonselective StAR promoter luciferase inhibitors – cell-based, luminescence, luciferase reporter, counter-screen for LRH-1 inverse agonist project, dose response (AID 651969); type: functional
[22] = molecular target: Cystic fibrosis transmembrane conductance regulator/Golgi-associated PDZ and coiled-coil motif-containing protein (Homo sapiens, UniProt P13569+Q9HD26); experiment: potency against CAL PDZ-peptide interaction – biochemical, fluorescence polarization, Cerulean-tagged CAL PDZ, cherry-picks, dose response (AID 504773)

CSc1nc(N(C)NC(=O)c2cccc(C)c2)c2ccccc2n1
EC50 [1]: < 100 nM (active)
EC50 [2]: 87 nM (active)
EC50 (cells): 104 nM (active)
EC50 [3]: < 100 nM (active)
EC50 [4]: < 100 nM (active)
EC50 (BJ [5]): 272 nM (active)
IC50 [6]: 140 nM (active)
EC50 [7]: 73 nM (active)
IC50 [8]: > 80 µM (inactive)

COc1ccc(C(=O)Cn2c(N)nc3ccccc32)cc1
IC50 (Interleukin-8 [9]): > 25 µM (inactive)
IC50 (Interleukin-8 [10]): > 25 µM (inactive)
IC50 (Tumor necrosis factor): > 20 µM (inactive)
IC50 [11]: > 20 µM (inactive)
IC50 [12]: > 20 µM (inactive)
IC50 (HEK293): > 20 µM (inactive)

Cc1nc2ccc(Nc3nc4cc(S(=O)(=O)N5CCOCC5)ccc4o3)cc2s1
IC50 [13]: > 80 µM (inactive)
IC50 [14]: > 100 µM (inactive)

CC[C@@]1(O)C(=O)OCc2c1cc1n(c2=O)Cc2cc3ccccc3nc2-1 [CAMPTOTHECIN]
EC50 [1]: 134 nM (active)
EC50 [15]: > 55.7 µM (not active)
EC50 [4]: < 100 nM (active)
EC50 [16]: > 55.7 µM (not active)
EC50 (BJ [17]): 7.67 nM (active)
GI50 (P388/ADR): 25.4 nM (active)
GI50 (SN12K1): 24.5 nM (active)
GI50 (P388): 26.7 nM (active)

CC(=O)Nc1ccc(NC(=O)CSc2ccc(-c3ccco3)nn2)cc1
IC50 [18]: 31.1 µM (active)
IC50 [19]: > 100 µM (inactive)
IC50 [20]: 35.9 µM (inactive)
IC50 (Steroidogenic factor 1): 35.9 µM (inactive)
IC50 [21]: 35.9 µM (inactive)

O=C1CC(c2ccccc2)=C(c2ccccc2)C1
AC50 [22]: 18.7 µM (active)
